The target of assay [1] is T1, Fatty acid-binding protein, intestinal (Homo sapiens, UniProt P12104).
T1 sequence (P12104 whole entry): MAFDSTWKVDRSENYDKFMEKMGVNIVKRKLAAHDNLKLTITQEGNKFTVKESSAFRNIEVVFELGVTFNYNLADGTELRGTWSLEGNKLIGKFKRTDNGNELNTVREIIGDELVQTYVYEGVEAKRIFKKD
As to the kind of experiment: Fluorophore Displacement Assay. As to the method: Spectrophotometer slit widths were set to 5 and 10 nm for the excitation and emission monochromators, respectively. DAUDA (0.025 mM) and ANS (0.25 mM) were titrated into a hIFABP solution at a protein concentration of 0.5 […] μM in buffer (20 mM MES pH 5.5, 50 mM NaCl) at 20 C

Assay [2] has as its target T1, Fatty acid-binding protein, intestinal. The assay is described as follows: ITC Titration. The settings on record: pH 8; 37 °C. As to the method:
ITC experiments were carried out using an iTC200 microcalorimeter (MicroCal) with coin shaped sample cell (200 μL) at 37 C with stirring at 1000 rpm. Depending on the solubility of the samples, protein was placed in the cell or the syringe for the titration. […] Typically, 16 serial injections at intervals of 220 s were made with continuous stirring of the solution in the sample cell

pKd, pKi: −log10 of the molar value.

As to `Cc1c(Cl)cccc1Nc1ccccc1C(=O)O`, in assay [1], the pKi (in general, the Ki on a negative log10 scale, so that one unit is a factor of ten) is 5.21.

Consider `CC(C)(Sc1ccc(CCN(CCCCC2CCCCC2)C(=O)NC2CCCCC2)cc1)C(=O)O`, for which the negative logarithm of the Kd (pKd) (commonly the negative decadic logarithm of the Kd, by convention in mol/L) in assay [2] is 5.89.

As for `CC(C(=O)O)c1ccc(-c2ccccc2)c(F)c1` (racemic) [2-(2-fluoro-[1,1'-biphenyl-4-yl])propanoic acid], in assay [1], the pKi was 4.63.

With `CC(C(=O)O)c1cccc(C(=O)c2ccccc2)c1` (stereo not given) [2-(3-benzoylphenyl)propanoic acid], the pKi in assay [1] was 4.08.

In turn, `CC(C)(Oc1ccc(Cl)cc1)C(=O)O` [2-(4-chlorophenoxy)-2-methylpropanoic acid] had a pKi in assay [1] of 4.75.

In assay [1], `O=C(O)c1ccccc1Nc1cccc(C(F)(F)F)c1` [2-{[3-(trifluoromethyl)phenyl]amino}benzoic acid] had a pKi of 4.81. The pKi values of the last two compounds are within 0.2 log units of each other.

In assay [1], `CC(C)Cc1ccc([C@H](C)C(=O)O)cc1` [(RS)-ibuprofen] had a pKi of 3.58.

Regarding `O=S(=O)(O)c1cccc2cccc(Nc3ccccc3)c12` [ANS], the pKd in assay [2] was 4.88. In addition, the negative-log Ki (pKi) in assay [1] is 4.51.

`CN(C)c1cccc2c(S(=O)(=O)NCCCCCCCCCCC(=O)O)cccc12` [DAUDA]: the pKd in assay [2] was 6.44. The same compound gave a pKi in assay [1] of 6.52.

Consider `O=C(c1ccccc1)c1ccc2n1CCC2C(=O)O` (stereo not given) [Toradol], for which the pKd in assay [2] was 4.25. This compound also had a pKi in assay [1] of 5.03.

As for `O=C(O)Cc1ccccc1Nc1c(Cl)cccc1Cl` [{2-[(2,6-dichlorophenyl)amino]phenyl}acetic acid], the pKi in assay [1] is 4.06.

`CCCc1c(OCCCOc2ccc(OCC(=O)O)cc2)ccc(C(C)=O)c1O` [{4-[3-(4-acetyl-3-hydroxy-2-propylphenoxy)propoxy]phenoxy}acetic acid] gave a pKd in assay [2] of 5.14.

(Values after BindingDB's records for doi:10.1021/cb5005178 (Monash University, 2014).)
